Assay in all cases: biochemical
Holding throughout (format): binding

Assay [1] concerns the target T1, panel of 442 kinases (Homo sapiens, UniProt P07948).
T1 construct: purchased Ambit Biosciences (scanMAXX KINOMEscan)
The note with it: kinase LYN; for remaining activity at 1 µM: read-out: % of control at 1 µM.

The target in assay [2] is T2, panel of 442 kinases (Homo sapiens, UniProt P33981).
T2 construct: purchased Ambit Biosciences (scanMAXX KINOMEscan)
T2 sequence (P33981 1-857): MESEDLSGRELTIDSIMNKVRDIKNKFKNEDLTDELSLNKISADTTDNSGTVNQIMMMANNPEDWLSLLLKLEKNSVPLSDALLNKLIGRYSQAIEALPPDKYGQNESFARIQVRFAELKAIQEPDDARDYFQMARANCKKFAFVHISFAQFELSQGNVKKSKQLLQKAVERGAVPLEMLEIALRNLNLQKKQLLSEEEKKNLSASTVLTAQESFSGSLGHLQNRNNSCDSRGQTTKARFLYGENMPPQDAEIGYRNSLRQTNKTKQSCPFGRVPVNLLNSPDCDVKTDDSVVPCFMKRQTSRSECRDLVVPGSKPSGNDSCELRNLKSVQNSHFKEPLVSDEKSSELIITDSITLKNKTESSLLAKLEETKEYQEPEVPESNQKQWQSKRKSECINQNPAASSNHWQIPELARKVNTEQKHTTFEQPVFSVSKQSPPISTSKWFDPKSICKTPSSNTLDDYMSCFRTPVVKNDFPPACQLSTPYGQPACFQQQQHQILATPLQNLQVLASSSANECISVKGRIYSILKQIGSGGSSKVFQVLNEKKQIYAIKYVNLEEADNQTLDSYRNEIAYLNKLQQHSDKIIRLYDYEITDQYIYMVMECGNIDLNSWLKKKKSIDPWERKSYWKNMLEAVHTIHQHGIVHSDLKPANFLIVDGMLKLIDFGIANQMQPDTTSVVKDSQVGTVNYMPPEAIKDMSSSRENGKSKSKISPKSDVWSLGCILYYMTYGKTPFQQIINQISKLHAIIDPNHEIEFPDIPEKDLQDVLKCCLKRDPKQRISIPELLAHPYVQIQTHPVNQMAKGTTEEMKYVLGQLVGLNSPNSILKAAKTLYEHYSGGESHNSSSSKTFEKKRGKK
The conditions noted are these: kinase TTK; for remaining activity at 1 µM: read-out: TTK (% of control at 1 µM).

Assay [3] deals with T3, panel of 442 kinases (Homo sapiens, UniProt Q00536).
T3 construct: purchased Ambit Biosciences (scanMAXX KINOMEscan)
T3 sequence (Q00536 whole entry): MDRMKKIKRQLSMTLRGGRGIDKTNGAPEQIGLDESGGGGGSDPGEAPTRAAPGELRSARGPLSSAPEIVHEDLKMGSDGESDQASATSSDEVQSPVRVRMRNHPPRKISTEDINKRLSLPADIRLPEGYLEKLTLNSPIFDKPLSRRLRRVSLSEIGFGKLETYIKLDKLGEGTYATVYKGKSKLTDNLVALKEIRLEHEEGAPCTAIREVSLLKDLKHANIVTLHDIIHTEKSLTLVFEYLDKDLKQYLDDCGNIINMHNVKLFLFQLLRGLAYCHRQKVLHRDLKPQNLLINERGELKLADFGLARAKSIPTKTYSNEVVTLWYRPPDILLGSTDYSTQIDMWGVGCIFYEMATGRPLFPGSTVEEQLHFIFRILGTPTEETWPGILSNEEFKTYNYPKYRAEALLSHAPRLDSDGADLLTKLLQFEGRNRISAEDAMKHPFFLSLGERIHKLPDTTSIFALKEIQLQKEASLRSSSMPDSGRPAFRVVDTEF
The note with it: kinase PCTK1; for remaining activity at 1 µM: read-out: % of control at 1 µM.

For assay [4], the target named is T4, panel of 442 kinases (Homo sapiens, UniProt P46734).
T4 construct: purchased Ambit Biosciences (scanMAXX KINOMEscan)
T4 sequence (P46734 1-347): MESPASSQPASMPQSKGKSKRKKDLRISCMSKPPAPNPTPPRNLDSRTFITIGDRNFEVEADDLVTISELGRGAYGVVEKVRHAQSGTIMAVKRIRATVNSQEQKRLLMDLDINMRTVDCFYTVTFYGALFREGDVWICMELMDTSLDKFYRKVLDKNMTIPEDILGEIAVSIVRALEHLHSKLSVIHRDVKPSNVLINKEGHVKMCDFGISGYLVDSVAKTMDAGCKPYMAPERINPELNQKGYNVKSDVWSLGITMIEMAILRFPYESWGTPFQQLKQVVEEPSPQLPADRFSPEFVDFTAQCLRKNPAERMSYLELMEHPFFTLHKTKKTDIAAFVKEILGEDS
The conditions noted are these: kinase MEK3; for remaining activity at 1 µM: read-out: % of control at 1 µM.

The target in assay [5] is T5, panel of 442 kinases (Homo sapiens, UniProt Q9NSY1).
T5 construct: purchased Ambit Biosciences (scanMAXX KINOMEscan)
The note with it: BIKE; for remaining activity at 1 µM: read-out: % of control at 1 µM.

For assay [6], the target named is T6, panel of 442 kinases (Homo sapiens, UniProt P36894).
T6 construct: purchased Ambit Biosciences (scanMAXX KINOMEscan)
T6 sequence (P36894 24-532): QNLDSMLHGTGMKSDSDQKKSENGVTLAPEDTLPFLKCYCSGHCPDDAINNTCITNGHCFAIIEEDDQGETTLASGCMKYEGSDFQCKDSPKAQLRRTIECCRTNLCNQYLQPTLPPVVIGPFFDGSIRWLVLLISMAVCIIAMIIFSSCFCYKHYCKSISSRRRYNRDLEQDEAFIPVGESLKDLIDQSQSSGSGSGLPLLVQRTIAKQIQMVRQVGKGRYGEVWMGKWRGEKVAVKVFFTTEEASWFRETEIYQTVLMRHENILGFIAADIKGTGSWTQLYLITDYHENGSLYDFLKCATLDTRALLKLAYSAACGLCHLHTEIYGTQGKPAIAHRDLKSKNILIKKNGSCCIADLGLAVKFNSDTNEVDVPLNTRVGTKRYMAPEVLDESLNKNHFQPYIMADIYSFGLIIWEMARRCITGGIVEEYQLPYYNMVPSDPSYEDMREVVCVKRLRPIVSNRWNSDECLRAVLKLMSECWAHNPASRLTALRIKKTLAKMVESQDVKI
The conditions noted are these: BMPR1A; for remaining activity at 1 µM: read-out: % of control at 1 µM.

The target of assay [7] is T7, panel of 442 kinases (Homo sapiens, UniProt Q9Y616).
T7 construct: purchased Ambit Biosciences (scanMAXX KINOMEscan)
T7 sequence (Q9Y616 1-596): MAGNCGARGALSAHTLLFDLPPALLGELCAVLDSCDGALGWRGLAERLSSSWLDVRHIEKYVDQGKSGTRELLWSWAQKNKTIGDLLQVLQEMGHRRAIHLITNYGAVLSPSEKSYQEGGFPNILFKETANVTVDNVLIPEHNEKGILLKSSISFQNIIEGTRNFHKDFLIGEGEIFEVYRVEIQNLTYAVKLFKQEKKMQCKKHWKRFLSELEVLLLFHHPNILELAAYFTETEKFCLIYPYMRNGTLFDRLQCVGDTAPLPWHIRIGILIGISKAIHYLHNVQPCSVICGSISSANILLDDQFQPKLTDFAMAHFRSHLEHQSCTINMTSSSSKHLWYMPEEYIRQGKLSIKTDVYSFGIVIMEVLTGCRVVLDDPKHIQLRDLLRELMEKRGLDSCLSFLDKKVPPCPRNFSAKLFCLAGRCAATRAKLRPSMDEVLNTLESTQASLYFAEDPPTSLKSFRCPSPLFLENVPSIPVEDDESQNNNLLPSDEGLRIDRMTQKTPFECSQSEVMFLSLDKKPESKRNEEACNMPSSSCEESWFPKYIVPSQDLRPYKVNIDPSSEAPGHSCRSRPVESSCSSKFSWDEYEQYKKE
The conditions noted are these: kinase IRAK3; for remaining activity at 1 µM: read-out: % of control at 1 µM.

In assay [8] the target is T8, panel of 442 kinases (Homo sapiens, UniProt Q86UE8).
T8 construct: purchased Ambit Biosciences (scanMAXX KINOMEscan)
T8 sequence (Q86UE8 whole entry): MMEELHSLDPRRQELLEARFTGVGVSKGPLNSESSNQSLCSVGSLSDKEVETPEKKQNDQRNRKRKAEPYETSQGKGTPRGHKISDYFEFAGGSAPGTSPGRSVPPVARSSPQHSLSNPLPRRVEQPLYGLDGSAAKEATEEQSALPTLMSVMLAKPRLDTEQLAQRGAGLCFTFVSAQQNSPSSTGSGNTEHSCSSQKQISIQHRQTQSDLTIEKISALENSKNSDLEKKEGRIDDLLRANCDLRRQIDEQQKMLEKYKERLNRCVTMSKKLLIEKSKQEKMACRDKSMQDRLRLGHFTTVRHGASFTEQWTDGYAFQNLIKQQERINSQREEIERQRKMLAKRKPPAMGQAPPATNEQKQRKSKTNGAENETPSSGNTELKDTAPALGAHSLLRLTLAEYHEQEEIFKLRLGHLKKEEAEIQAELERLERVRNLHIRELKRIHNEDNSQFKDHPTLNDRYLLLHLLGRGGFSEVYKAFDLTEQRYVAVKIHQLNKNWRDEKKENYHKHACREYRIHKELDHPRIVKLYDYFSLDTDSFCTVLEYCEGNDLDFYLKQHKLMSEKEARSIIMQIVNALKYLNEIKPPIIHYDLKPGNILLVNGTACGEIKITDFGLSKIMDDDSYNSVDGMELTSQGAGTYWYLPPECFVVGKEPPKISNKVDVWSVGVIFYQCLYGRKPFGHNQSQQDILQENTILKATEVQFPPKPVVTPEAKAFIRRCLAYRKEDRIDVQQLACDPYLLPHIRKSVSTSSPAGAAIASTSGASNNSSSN
The conditions noted are these: kinase TLK2; for remaining activity at 1 µM: read-out: TLK2 (% of control at 1 µM).

The target in assay [9] is T9, panel of 442 kinases (Homo sapiens, UniProt Q9Y463).
T9 construct: purchased Ambit Biosciences (scanMAXX KINOMEscan)
T9 sequence (Q9Y463 whole entry): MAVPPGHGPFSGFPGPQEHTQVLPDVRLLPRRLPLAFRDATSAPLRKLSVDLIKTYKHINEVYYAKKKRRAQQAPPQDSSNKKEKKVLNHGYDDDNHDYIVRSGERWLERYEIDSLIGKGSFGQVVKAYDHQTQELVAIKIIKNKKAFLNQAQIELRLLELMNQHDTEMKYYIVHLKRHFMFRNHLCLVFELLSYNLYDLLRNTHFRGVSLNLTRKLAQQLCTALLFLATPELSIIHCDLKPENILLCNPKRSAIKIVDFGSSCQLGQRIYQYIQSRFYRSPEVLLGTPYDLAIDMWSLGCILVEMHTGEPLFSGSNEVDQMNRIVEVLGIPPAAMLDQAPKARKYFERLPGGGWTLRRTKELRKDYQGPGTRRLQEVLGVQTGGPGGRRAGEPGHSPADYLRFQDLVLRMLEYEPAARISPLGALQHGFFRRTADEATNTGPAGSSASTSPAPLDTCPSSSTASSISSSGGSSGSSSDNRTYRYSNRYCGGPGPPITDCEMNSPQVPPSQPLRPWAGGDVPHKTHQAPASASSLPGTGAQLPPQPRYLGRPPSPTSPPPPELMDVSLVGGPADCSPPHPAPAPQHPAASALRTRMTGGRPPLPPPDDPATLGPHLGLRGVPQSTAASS
The conditions noted are these: DYRK1B; for remaining activity at 1 µM: read-out: % of control at 1 µM.

Assay [10] deals with T10, panel of 442 kinases (Homo sapiens, UniProt Q08345).
T10 construct: purchased Ambit Biosciences (scanMAXX KINOMEscan)
T10 sequence (Q08345 19-913): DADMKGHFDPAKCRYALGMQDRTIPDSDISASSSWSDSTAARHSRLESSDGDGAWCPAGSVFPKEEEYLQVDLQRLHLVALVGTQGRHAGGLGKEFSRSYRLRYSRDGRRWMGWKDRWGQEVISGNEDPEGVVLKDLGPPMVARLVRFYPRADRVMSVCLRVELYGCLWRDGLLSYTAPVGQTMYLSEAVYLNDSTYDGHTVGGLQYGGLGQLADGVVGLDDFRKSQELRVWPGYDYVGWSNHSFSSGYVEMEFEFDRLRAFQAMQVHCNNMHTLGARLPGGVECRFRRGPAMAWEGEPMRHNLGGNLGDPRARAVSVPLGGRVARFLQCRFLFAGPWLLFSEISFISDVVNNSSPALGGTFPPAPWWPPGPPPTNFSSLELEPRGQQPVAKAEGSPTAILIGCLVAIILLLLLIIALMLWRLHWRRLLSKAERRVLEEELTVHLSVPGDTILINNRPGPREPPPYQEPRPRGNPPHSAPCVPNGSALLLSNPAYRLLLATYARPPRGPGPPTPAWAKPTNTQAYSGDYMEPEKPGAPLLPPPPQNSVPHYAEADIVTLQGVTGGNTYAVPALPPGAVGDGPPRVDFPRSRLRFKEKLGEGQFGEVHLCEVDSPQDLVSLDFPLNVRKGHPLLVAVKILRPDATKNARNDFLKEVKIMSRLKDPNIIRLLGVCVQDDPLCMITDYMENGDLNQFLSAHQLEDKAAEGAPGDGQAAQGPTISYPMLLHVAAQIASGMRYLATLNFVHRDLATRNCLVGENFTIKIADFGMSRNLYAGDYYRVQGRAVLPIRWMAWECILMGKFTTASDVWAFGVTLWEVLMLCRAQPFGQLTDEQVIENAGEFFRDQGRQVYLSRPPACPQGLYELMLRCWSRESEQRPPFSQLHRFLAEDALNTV
The conditions noted are these: DDR1; for remaining activity at 1 µM: read-out: % of control at 1 µM.

The target in assay [11] is T11, panel of 442 kinases (Homo sapiens, UniProt Q07002).
T11 construct: purchased Ambit Biosciences (scanMAXX KINOMEscan)
T11 sequence (Q07002 whole entry): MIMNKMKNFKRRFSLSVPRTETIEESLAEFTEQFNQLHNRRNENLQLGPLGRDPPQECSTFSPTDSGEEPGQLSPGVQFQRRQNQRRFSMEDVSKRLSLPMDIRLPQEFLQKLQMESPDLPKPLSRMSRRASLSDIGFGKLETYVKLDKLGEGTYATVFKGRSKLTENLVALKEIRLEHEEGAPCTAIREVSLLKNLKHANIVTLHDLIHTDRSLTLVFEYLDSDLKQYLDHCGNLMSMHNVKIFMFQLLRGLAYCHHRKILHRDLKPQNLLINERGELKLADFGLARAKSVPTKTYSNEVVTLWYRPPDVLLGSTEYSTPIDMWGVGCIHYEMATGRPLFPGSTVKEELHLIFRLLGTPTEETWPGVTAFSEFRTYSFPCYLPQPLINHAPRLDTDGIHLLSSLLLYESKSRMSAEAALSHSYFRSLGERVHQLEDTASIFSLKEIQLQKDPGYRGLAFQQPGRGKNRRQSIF
The note with it: kinase PCTK3; for remaining activity at 1 µM: read-out: % of control at 1 µM.

For assay [12], the target named is T12, panel of 442 kinases (Homo sapiens, UniProt P51812).
T12 construct: purchased Ambit Biosciences (scanMAXX KINOMEscan)
T12 sequence (P51812 whole entry): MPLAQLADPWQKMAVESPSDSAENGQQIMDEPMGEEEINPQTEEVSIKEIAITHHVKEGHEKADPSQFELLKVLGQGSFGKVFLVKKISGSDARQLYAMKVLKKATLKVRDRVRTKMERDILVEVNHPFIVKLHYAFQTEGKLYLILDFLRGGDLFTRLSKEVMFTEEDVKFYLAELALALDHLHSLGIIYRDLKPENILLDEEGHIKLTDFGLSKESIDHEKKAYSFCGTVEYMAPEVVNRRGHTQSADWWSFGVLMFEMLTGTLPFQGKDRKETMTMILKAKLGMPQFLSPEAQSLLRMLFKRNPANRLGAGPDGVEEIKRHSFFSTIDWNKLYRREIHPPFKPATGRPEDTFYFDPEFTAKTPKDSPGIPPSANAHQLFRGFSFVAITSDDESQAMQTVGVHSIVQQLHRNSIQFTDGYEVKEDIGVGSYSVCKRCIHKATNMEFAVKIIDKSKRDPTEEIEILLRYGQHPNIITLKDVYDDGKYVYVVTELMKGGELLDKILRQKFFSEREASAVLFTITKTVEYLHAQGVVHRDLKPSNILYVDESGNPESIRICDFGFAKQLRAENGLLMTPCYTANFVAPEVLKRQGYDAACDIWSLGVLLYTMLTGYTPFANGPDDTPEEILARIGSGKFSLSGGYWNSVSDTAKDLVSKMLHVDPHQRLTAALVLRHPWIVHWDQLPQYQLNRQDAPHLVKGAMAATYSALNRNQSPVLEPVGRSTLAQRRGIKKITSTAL
The note with it: kinase RSK2(Kin.Dom.1-N-terminal); for remaining activity at 1 µM: read-out: RSK2(Kin.Dom.1-N-terminal) (% of control at 1 µM).

The target in assay [13] is T13, panel of 442 kinases (Homo sapiens, UniProt P48736).
T13 construct: purchased Ambit Biosciences (scanMAXX KINOMEscan)
The conditions noted are these: kinase PIK3CG; 1 µM; read-out: % of control at 1 µM.

Where [14] appears, read: 10 µM, read-out: % of control at 10 µM.

T1 sequence (P07948 whole entry): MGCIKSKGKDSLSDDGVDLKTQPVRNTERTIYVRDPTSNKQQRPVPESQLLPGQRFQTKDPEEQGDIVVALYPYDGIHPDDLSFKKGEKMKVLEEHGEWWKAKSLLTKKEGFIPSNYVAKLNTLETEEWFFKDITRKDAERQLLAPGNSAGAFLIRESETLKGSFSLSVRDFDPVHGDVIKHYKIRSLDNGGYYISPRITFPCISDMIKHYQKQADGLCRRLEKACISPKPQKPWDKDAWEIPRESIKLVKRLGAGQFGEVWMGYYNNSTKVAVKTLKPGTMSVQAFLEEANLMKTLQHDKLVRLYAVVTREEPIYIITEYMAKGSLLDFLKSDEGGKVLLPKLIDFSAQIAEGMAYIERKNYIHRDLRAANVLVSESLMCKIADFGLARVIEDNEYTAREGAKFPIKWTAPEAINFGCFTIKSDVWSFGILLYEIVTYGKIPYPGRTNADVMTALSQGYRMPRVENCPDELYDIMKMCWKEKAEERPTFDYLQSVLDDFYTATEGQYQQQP

For the compound `Nc1cc(C(F)(F)F)c(-c2cc(N3CCOCC3)nc(N3CCOCC3)n2)cn1` [Buparlisib], the remaining activity at 1 µM is 84% on panel of 442 kinases [1]; 100% at panel of 442 kinases [2]; 79% at panel of 442 kinases [3]; 100% at panel of 442 kinases [4]; 98% at panel of 442 kinases [5]; 100% at panel of 442 kinases [6]. For the same compound, the remaining activity at 1 µM at panel of 442 kinases [7] was 95%; on panel of 442 kinases [8], 100%; on panel of 442 kinases [9], 86%; on panel of 442 kinases [10], 100%; on panel of 442 kinases [11] it was 100%; at panel of 442 kinases [12], 99%. Moreover, the remaining activity at 10 µM stood at 100% on panel of 442 kinases [1] (setting [14]); 85% at panel of 442 kinases [2] (10 µM, read-out: TTK (% of control at 10 µM)); 100% on panel of 442 kinases [3] (setting [14]); 100% on panel of 442 kinases [4] (setting [14]); 100% at panel of 442 kinases [5] (setting [14]); 100% at panel of 442 kinases [6] (setting [14]). The remaining activity at 10 µM is 96% at panel of 442 kinases [7] (setting [14]); 100% on panel of 442 kinases [8] (10 µM, read-out: TLK2 (% of control at 10 µM)); 100% at panel of 442 kinases [9] (setting [14]); 92% on panel of 442 kinases [10] (setting [14]); 87% on panel of 442 kinases [11] (setting [14]); 87% at panel of 442 kinases [12] (10 µM, read-out: RSK2(Kin.Dom.1-N-terminal) (% of control at 10 µM)).

Regarding `Cn1c(=O)n(-c2ccc(C(C)(C)C#N)cc2)c2c3cc(-c4cnc5ccccc5c4)ccc3ncc21` [Dactolisib, 2-methyl-2-[4-(3-methyl-2-oxo-8-quinolin-3-yl-2,3-dihydroimidazo[4,5-c]quinolin-1-yl)-phenyl] propionitrile], the remaining activity at 1 µM at panel of 442 kinases [13] was found to be 38%; at panel of 442 kinases [1] it was 87%; on panel of 442 kinases [2] it was 49%; at panel of 442 kinases [3] it was 100%; on panel of 442 kinases [4], 96%; on panel of 442 kinases [5] it was 53%. The remaining activity at 1 µM came out at 98% at panel of 442 kinases [6]; 50% at panel of 442 kinases [7]; 93% on panel of 442 kinases [8]; 93% on panel of 442 kinases [9]; 100% at panel of 442 kinases [10]; 94% at panel of 442 kinases [11].

`COc1ncc(-c2ccc3nccc(-c4ccnnc4)c3c2)cc1NS(=O)(=O)c1ccc(F)cc1F` [Omipalisib]: the remaining activity at 1 µM worked out at 0% at panel of 442 kinases [13]; 100% at panel of 442 kinases [1]; 76% on panel of 442 kinases [2]; 96% on panel of 442 kinases [3]; 46% at panel of 442 kinases [4]; 82% on panel of 442 kinases [5]. Moreover, the remaining activity at 1 µM on panel of 442 kinases [6] was 100%; on panel of 442 kinases [7] it was 26%; on panel of 442 kinases [8], 100%; at panel of 442 kinases [9], 88%; at panel of 442 kinases [10] it was 100%; on panel of 442 kinases [11], 100%. Moreover, the remaining activity at 1 µM on panel of 442 kinases [12] is 62%.

As to `FC(F)c1nc2ccccc2n1-c1nc(N2CCOCC2)nc(N2CCOCC2)n1` [ZSTK474, 2-(difluoromethyl)-1-[4,6-di(4-morpholinyl)-1,3,5-triazin-2-yl]-1H-benzimidazole], the remaining activity at 1 µM at panel of 442 kinases [13] was found to be 0%; at panel of 442 kinases [1] it was 100%; on panel of 442 kinases [2], 100%; at panel of 442 kinases [3], 95%; at panel of 442 kinases [4], 100%; at panel of 442 kinases [5], 53%. In addition, the remaining activity at 1 µM on panel of 442 kinases [6] is 58%; at panel of 442 kinases [7] it was 100%; at panel of 442 kinases [8], 100%; at panel of 442 kinases [9], 97%; at panel of 442 kinases [10] it was 95%; on panel of 442 kinases [11], 100%. Also, on panel of 442 kinases [12], the remaining activity at 1 µM turned out to be 88%.

The values are drawn from paper PMC5564600 (Oncotarget, 2017).
